Where a SMILES comes first, the peptide text is derived from it. The star is where a group is joined. Cbz = O=C(OCc1ccccc1)*
Assays:
Type in all cases: cell-based, human
[1] = test system: Aβ1-42 production in APB10 cells (APP-Sw-KK and PS1-DTG385); assay: Inhibition assay, stable cell lines: Elisa of Aβ1-42 in conditioned media, PS1-DTG385 cell line; settings: for dose response profile, Aβ1-42 production: PS1-DTG385 cell line
Description: (§1) The purpose of the experiment was to assess the effect of compounds known or postulated to have an effect on processing at the proposed gamma cleavage site
(§2) The compounds used were L685,458 (Bachem Cat # H-5106) described by Li et al (15), one we have designated 512088, a fenchylamine sulfonamide inhibitor described by Rishton et al. (16). Z-Leu-Leu-Leu-H, also known as MG132 (Peptide Institute Cat # 3175-v) described by Tajima et al (17), and DMSO (Aldrich Cat # 27,685-5) as a vehicle control. All drugs were resuspended in DMSO at a concentration of 10 mM. Serial dilutions of the drugs were made in cell culture media [DMEM (Gibco cat # 11965-092) supplemented with 10% fetal bovine serum, 1 mM sodium pyruvate, 100 units/ml penicillin G, 100 ug/ml streptomycin sulfate, and 400 ug/ml Geneticin]. Stable cell lines used for drug testing were H125.3-16 (expressing APP-Sw-KK), APA2 (co-expressing APP-Sw-KK and PS1-wt), APB10 (co-expressing APP-Sw-KK and PS1-DTG385), and APD3 (co-expressing APP-Sw-KK and PS1-M146V). APP-Sw-KK (An APP construct with a di-lysine motif at the C terminus) has been described in U.S. patent application Ser. No. 09/416901 filed Oct. 13, 1999 and also in WO 00/17369 “Alzheimer's Disease Secretase” published Mar. 30, 2000. Cells were plated at a concentration of 2.5×10^4 or 5.0×10^4 cells per well of a 96 well dish on day 1. Cells were treated with various concentrations of drugs on day 3. Conditioned media was harvested 24 hours post-treatment and analyzed in an Elisa assay for Aβ40 or Aβ42 levels (Described below). An MTS assay (Promega) was performed on the cells 24 hours post-treatment to assess toxicity levels of the drugs.
Primary Antibody 6E10 was purchased from Senetek PLC (St. Louis, Mo.). Secondary Antibodies 162, 163, 164 and 165 were purchased from New York Institute for Basic Research (Staten Island, N.Y.). β Bachem (Torrence, Calif.). β-Amyloid 1-40 is cat #ZN571) and 1-42 is cat #ZN327) Neutravidin was purchased from Pierce (Rockford, Ill.). The tetramethylbenzidine color development system was purchased from Kirkigaard & Perry Laboratories Inc. (Gaithersburg, Md.). Plates were read on a Molecular Devices Thermomax Plate Reader with integrated software that calculated the data and analyzed confidence values for the samples.
The coating buffer is 0.1M NaHCO3, pH8.2. Wash buffer is Dulbecco's PBS+0.05% Tween 20 (PBST). Blocking buffer is PBST+1% BSA (make up fresh the day of assay). The substrate is TMB Kirkegaard & Perry Labs. (cat.no.50-76-03). Plates are Costar 96 well half area EIA plates (cat.no.3690). Supplemental BSA is supplied as PBST+10% BSA made fresh on the day of assay.
1. Coat half area 96 well plates (Costar 3690) overnight @ 4° C. with capture antibody 6E10 (50 μl/well) made at […] in coating buffer, pH8.2.
2. Wash plates on an automatic plate washer 1× with wash buffer (175 μl/well).
3. Add 75 ul of blocking buffer to each well. Incubate 1 hr. @room temperature, then wash 3×.
4. Make standard curves from fresh aliquots for each amyloid in blocking buffer as follows:
b. Aβ 1-42 (10 μM. stock in DMSO): Make an initial dilution of […] then follow the instructions for Abeta 1-40 starting at the 1:100 dilution.
5. Add 50 μl of each std. (use duplicates) or sample dilution into the appropriate wells.
Incubate the standards and unknown samples @ room temperature for 3 to 4 hrs. If the samples being assayed contain no protein, 5 μl. of supplemental 10% BSA should be added to the sample wells before adding 50 μl. of sample.
6. […]

[2] = test system: Aβ1-40 production in APB10 cells (APP-Sw-KK and PS1-DTG385); assay: Inhibition assay, stable cell lines: Elisa of Aβ1-40 in conditioned media, PS1-DTG385 cell line
Description: as §1
(§3) The compounds used were L685,458 (Bachem Cat # H-5106) described by Li et al (15), one we have designated 512088, a fenchylamine sulfonamide inhibitor described by Rishton et al. (16). Z-Leu-Leu-Leu-H, also known as MG132 (Peptide Institute Cat # 3175-v) described by Tajima et al (17), and DMSO (Aldrich Cat # 27,685-5) as a vehicle control. All drugs were resuspended in DMSO at a concentration of 10 mM. Serial dilutions of the drugs were made in cell culture media [DMEM (Gibco cat # 11965-092) supplemented with 10% fetal bovine serum, 1 mM sodium pyruvate, 100 units/ml penicillin G, 100 ug/ml streptomycin sulfate, and 400 ug/ml Geneticin]. Stable cell lines used for drug testing were H125.3-16 (expressing APP-Sw-KK), APA2 (co-expressing APP-Sw-KK and PS1-wt), APB10 (co-expressing APP-Sw-KK and PS1-DTG385), and APD3 (co-expressing APP-Sw-KK and PS1-M146V). […] Conditioned media was harvested 24 hours post-treatment and analyzed in an Elisa assay for Aβ40 or Aβ42 levels (Described below). […]
(§4) Primary Antibody 6E10 was purchased from Senetek PLC (St. Louis, Mo.). […] Plates were read on a Molecular Devices Thermomax Plate Reader with integrated software that calculated the data and analyzed confidence values for the samples. […]

[3] = test system: gamma-secretase (Aβ1-40 and Aβ1-42 production in three stable cell lines); assay: Inhibition assay, stable cell lines: overall potency on Aβ1-40 and Aβ1-42 production; settings: greater than 512088
Description: as §1
The compounds used were L685,458 (Bachem Cat # H-5106) described by Li et al (15), one we have designated 512088, a fenchylamine sulfonamide inhibitor described by Rishton et al. (16). Z-Leu-Leu-Leu-H, also known as MG132 (Peptide Institute Cat # 3175-v) described by Tajima et al (17), and DMSO (Aldrich Cat # 27,685-5) as a vehicle control. All drugs were resuspended in DMSO at a concentration of 10 mM. Serial dilutions of the drugs were made in cell culture media [DMEM (Gibco cat # 11965-092) supplemented with 10% fetal bovine serum, 1 mM sodium pyruvate, 100 units/ml penicillin G, 100 ug/ml streptomycin sulfate, and 400 ug/ml Geneticin]. Stable cell lines used for drug testing were H125.3-16 (expressing APP-Sw-KK), APA2 (co-expressing APP-Sw-KK and PS1-wt), APB10 (co-expressing APP-Sw-KK and PS1-DTG385), and APD3 (co-expressing APP-Sw-KK and PS1-M146V). APP-Sw-KK (An APP construct with a di-lysine motif at the C terminus) has been described in U.S. patent application Ser. No. 09/416901 filed Oct. 13, 1999 and also in WO 00/17369 “Alzheimer's Disease Secretase” published Mar. 30, 2000. […] Conditioned media was harvested 24 hours post-treatment and analyzed in an Elisa assay for Aβ40 or Aβ42 levels (Described below). […]

[4] = test system: Aβ1-40 production in H125.3-16 (APP-Sw-KK) and APA2 (APP-Sw-KK and PS1-wt) cells; assay: Inhibition assay, stable cell lines: Elisa of Aβ1-40 in conditioned media, PS1wt cell lines; settings: PS1wt cell lines (H125.3-16, APA2)
Description: as §1, §3, §4

[5] = test system: Aβ1-42 production in H125.3-16 (APP-Sw-KK) and APA2 (APP-Sw-KK and PS1-wt) cells; assay: Inhibition assay, stable cell lines: Elisa of Aβ1-42 in conditioned media, PS1wt cell lines; settings: for dose response profile, Aβ1-42 production: PS1wt cell lines (H125.3-16, APA2)
Description: as §1, §2, §4

Row | Structure (SMILES) | dose response profile, Aβ1-42 production [1] | shift of the dose response compared with the PS1wt cell lines ([1]; PS1DTG385 cells) | dose response profile, inhibition of Aβ1-40 [2] | potency relative to 512088 [3] | dose response profile, inhibition of Aβ1-40 [4] | dose response profile, Aβ1-42 production [5] | potentiation of production of Aβ1-42 relative to Aβ1-40 ([1]; PS1DTG385 cells) | peak in the dose response (Aβ1-42) ([1]; PS1DTG385 cells, FIG. 8) [µM] | peak in the dose response (Aβ1-42) ([5]; PS1wt cell lines, FIG. 8) [µM]
1 | CC(C)C[C@H](NC(=O)[C@H](Cc1ccccc1)C[C@@H](O)[C@H](Cc1ccccc1)NC(=O)OC(C)(C)C)C(=O)N[C@@H](Cc1ccccc1)C(N)=O [L685,458] | clearly biphasic | slightly lower potency | linear decrease | approximately 10 fold | biphasic dose response | biphasic |  |  | 
2 | CC(C)C[C@@H](C=O)NC(=O)[C@H](CC(C)C)NC(=O)[C@H](CC(C)C)NC(=O)OCc1ccccc1 [MG132, Z-Leu-Leu-Leu-H] (Cbz-Leu-Leu-Leu-aldehyde) | not strongly biphasic |  | not strongly biphasic |  | not strongly biphasic in any of the cell lines except the parental PS1wt HEK125.3-16 | strongly biphasic | does not happen | 0.3 | 10

Source: patent US6686449B2, “Mutant presenilin 1 polypeptides” (Pharmacia & Upjohn Company, priority 2000, dated 2004)
